Experimental data as given in PubChem BioAssay AID434954 (Broad Institute, 2010).
The source made the active and inactive calls.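 The calls were made as follows: active = IC50 at or below a set limit above the highest tested dose; inconclusive = flat curve with 30 to 70% inhibition, or poor fit; inactive = the rest.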

These compounds were tested against Glycogen synthase kinase-3 beta (Homo sapiens) (UniProt P49841) (assay: GSK3beta kinase inhibitor potency, dose response, biochemical, luminescence, cell-free homogeneous, retest (AID 434954)). Conditions: recombinant GSK3beta, ADP-Glo luminescence, 60 min.
Chain of Glycogen synthase kinase-3 beta (Homo sapiens) (P49841 whole entry, looked up): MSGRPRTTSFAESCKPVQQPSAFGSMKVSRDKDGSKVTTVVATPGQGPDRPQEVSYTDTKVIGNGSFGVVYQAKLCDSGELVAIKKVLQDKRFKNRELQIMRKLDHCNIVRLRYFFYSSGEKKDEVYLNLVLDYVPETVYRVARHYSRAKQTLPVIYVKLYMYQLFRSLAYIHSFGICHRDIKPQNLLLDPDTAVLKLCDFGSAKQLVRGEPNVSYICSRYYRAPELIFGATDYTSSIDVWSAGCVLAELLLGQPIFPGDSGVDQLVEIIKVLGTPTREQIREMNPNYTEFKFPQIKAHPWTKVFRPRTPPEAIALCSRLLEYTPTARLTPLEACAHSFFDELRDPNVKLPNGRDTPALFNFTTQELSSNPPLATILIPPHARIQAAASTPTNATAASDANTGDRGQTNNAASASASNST
With `COc1cc(/C=N/Nc2nc(Nc3ccccc3)nc(N3CCCCC3)n2)ccc1OCC(=O)O` the IC50 was > 30 µM (inactive). For `Cc1ccc(-c2nn(-c3ccccc3)cc2/C=N/O)cc1`, the IC50 was 0.565 µM. `O=c1[nH]c(N/N=C/c2ccccc2)nc2ccccc12` was tested, and the IC50 was > 30 µM (inactive). `C/C(=N\Nc1nccnc1Cl)c1ccc(Br)cc1` was tested, and the IC50 was > 30 µM (inactive). For `COc1cc(C2C(C(=O)c3cccs3)=C(O)C(=O)N2CCN2CCOCC2)ccc1OCCC(C)C` (configuration not stated), the IC50 was > 30 µM (inactive). With `CC1(C)CC(=O)C2=C(C1)Nc1[nH]c(=S)[nH]c(=O)c1C2c1ccccc1` (configuration not stated) the IC50 was > 30 µM (inactive). With `COc1ccc(-c2nn(CCC#N)cc2/C=N/O)cc1OC` the IC50 was > 30 µM (inactive). `O=C(N/N=C/c1ccc(O)c(O)c1)N/N=C/c1ccc(O)c(O)c1` gave an IC50 of 13.3 µM. In the case of `CCOC(=O)C1=C(C)Nc2ncnn2C1c1ccc2c(c1)OCO2` (configuration not stated), the IC50 is reported as > 30 µM (inactive). In the case of `COc1cc(/C=N/NC(=O)c2ccc(O)cc2)ccc1Oc1ccc([N+](=O)[O-])cn1`, the IC50 is reported as > 30 µM (inactive). With `COc1ccc(C2C(C#N)=C(C)NC3=C2C(=O)CC(C)(C)C3)cc1` (configuration not stated) the IC50 was > 30 µM (inactive). `NS(=O)(=O)c1ccc(N=Nc2c(O)[nH]c3ccc(Br)cc23)cc1` was tested, and the IC50 was > 30 µM (inactive). For `O=C1CC(c2c[nH]c3ccccc23)C(=O)N1c1ccccc1` (configuration not stated), the IC50 was > 30 µM (inactive). With `COc1ccc(-c2nn(-c3ccccc3)cc2/C=N/Nc2ccc3ccccc3n2)cc1OC` the IC50 was > 30 µM (inactive). For `CCCC1=C(C(=O)OCC)C(c2sccc2C)n2ncnc2N1` (configuration not stated), the IC50 was > 30 µM (inactive). In the case of `Nc1ncnc2c1ncn2[C@@H]1O[C@H](CO)[C@@H](O)[C@H]1O`, the IC50 is reported as > 30 µM (inactive). `O=C1C(=O)N(c2ccccn2)C(c2ccc(Br)cc2)/C1=C(/O)c1ccc(Br)cc1` (configuration not stated) was tested, and the IC50 was > 30 µM (inactive). `CSc1nc2c(c(=O)[nH]1)C(c1cccs1)C1=C(CCCC1=O)N2` (configuration not stated) was tested, and the IC50 was > 30 µM (inactive). In the case of `O/N=C/c1ccc(OCc2ccccc2)c(Cl)c1`, the IC50 is reported as > 30 µM (inactive). `Cc1c(C#N)c(O)[nH]c(=O)c1N=Nc1ccc(Br)cc1C(=O)O` was tested, and the IC50 was > 30 µM (inactive). For `CSc1nc2n(n1)C(c1cccs1)C1=C(CCCC1=O)N2` (configuration not stated), the IC50 was > 30 µM (inactive). `C(=N\Nc1nccc(-c2cccnc2)n1)/c1ccccc1` gave an IC50 of 16.9 µM. In the case of `COc1cc(CN=Cc2c(O)n(C(C)(C)C)c(=O)[nH]c2=O)cc(OC)c1`, the IC50 is reported as > 30 µM (inactive). In the case of `Clc1ccc(/C=N/Nc2ncnc3nc[nH]c23)cc1`, the IC50 is reported as 20.4 µM. `N=C(N)N=Nc1c(O)[nH]c2ccc(Br)cc12` was tested, and the IC50 was 31.4 µM. `CC1=C(C(=O)Nc2ccccc2F)C(c2cccs2)C2=C(CCCC2=O)N1` (configuration not stated) was tested, and the IC50 was > 30 µM (inactive). `CCCC1=C(C(=O)OCC)C(c2ccco2)n2ncnc2N1` (configuration not stated) was tested, and the IC50 was 17.4 µM. In the case of `Cc1nn(-c2ccccn2)c2c1C(c1ccsc1)C1=C(CCCC1=O)N2` (configuration not stated), the IC50 is reported as > 30 µM (inactive). In the case of `Oc1ccccc1/C=N/Nc1nn[nH]n1`, the IC50 is reported as > 30 µM (inactive). For `Cc1ccsc1/C=N/Nc1ncnc2nc[nH]c12`, the IC50 was 9 µM. For `O=C1CCCC2=C1C(c1cccs1)n1nc(SCc3ccccc3)nc1N2` (configuration not stated), the IC50 was > 30 µM (inactive). With `CSc1nsc(/C=C/Nc2ccc(Cl)cc2)c1C#N` the IC50 was > 30 µM (inactive). With `CC1(C)CC(=O)C2=C(C1)Nc1ccccc1NC2c1ccc(F)cc1` (configuration not stated) the IC50 was > 30 µM (inactive). `CCCC1=C(C(=O)OCC)C(c2cccs2)n2ncnc2N1` (configuration not stated) showed an IC50 of 23.2 µM. In the case of `CCOC(=O)/C(C(=O)Nc1ccc(Cl)cc1Cl)=C1/NC(C)(C)Cc2ccccc21`, the IC50 is reported as > 30 µM (inactive). `Cc1c(C#N)c(O)[nH]c(=O)c1N=Nc1ccc(S(N)(=O)=O)cc1` gave an IC50 of 0.917 µM. In the case of `CCOc1ccc(/C=N/Nc2ccccn2)cc1OC`, the IC50 is reported as > 30 µM (inactive). `Oc1ccc(/C=N/Nc2ncnc3nc[nH]c23)cc1` was tested, and the IC50 was > 30 µM (inactive). For `CCOC(=O)C1=C(C)Nc2ncnn2C1c1cc(OC)ccc1OC` (configuration not stated), the IC50 was > 30 µM (inactive). `COc1cc(/C=N/Nc2ccc(C(F)(F)F)cn2)ccc1O` gave an IC50 of 10.1 µM. For `COc1cccc(C2Nc3ccccc3NC3=C2C(=O)CC(C)(C)C3)c1` (configuration not stated), the IC50 was > 30 µM (inactive). `CCOC(=O)C1=C(C)Nc2ncnn2C1c1c[nH]c2ccccc12` (configuration not stated) showed an IC50 of 4.64 µM. For `COCCOC(=O)C1=C(C)Nc2ncnn2C1c1ccccc1` (configuration not stated), the IC50 was > 30 µM (inactive). With `COc1cccc(C2C3=C(CC(C)(C)CC3=O)Nc3cc4c(cc32)OCO4)c1` (configuration not stated) the IC50 was > 30 µM (inactive). With `CC(C)Sc1nc2c(c(=O)[nH]1)C(c1cccs1)C1=C(CC(C)(C)CC1=O)N2` (configuration not stated) the IC50 was > 30 µM (inactive). `Cc1ccc(/C=N/Nc2ncnc3nc[nH]c23)cc1` was tested, and the IC50 was 30.1 µM. In the case of `Cc1[nH]nc2c1C(c1cccc(O)c1)C1=C(CC(C)(C)CC1=O)N2` (configuration not stated), the IC50 is reported as 0.421 µM. With `COc1cc(/C=N/O)ccc1OCc1ccccc1Cl` the IC50 was > 30 µM (inactive). Compound `COc1cc(-c2[nH]nc3c2C(c2ccco2)C(C#N)=C(N)O3)cc(OC)c1OC` (configuration not stated) has an IC50 of 8.59 µM. In the case of `C/C(=N\O)c1ncc(C(F)(F)F)cc1Cl`, the IC50 is reported as > 30 µM (inactive). For `O=C(CC1SC(N2CCCCC2)=NC1=O)Nc1cccc(C(F)(F)F)c1` (configuration not stated), the IC50 was > 30 µM (inactive). `Cc1[nH]nc2c1C(c1cccs1)C1=C(CC(C)(C)CC1=O)N2` (configuration not stated) was tested, and the IC50 was 1.36 µM. `O=c1[nH]c(=O)n(CCc2ccc(F)cc2)c(O)c1/C=N/N1CCCCC1` was tested, and the IC50 was > 30 µM (inactive). For `CCOC(=O)c1sc2c(c1C)C(c1cccs1)C1=C(CCCC1=O)N2` (configuration not stated), the IC50 was > 30 µM (inactive). For `CC[n+]1c(/C=C/Nc2ccccc2)sc2ccccc21`, the IC50 was > 30 µM (inactive). In the case of `COc1ccc(/C=N/Nc2ccc([N+](=O)[O-])cc2)cc1O`, the IC50 is reported as > 30 µM (inactive). `CCOc1ccc(N2C(=O)C(Cl)=C(Nc3ccccc3O)C2=O)cc1` was tested, and the IC50 was > 30 µM (inactive). In the case of `COc1ccc(OC)c(N=c2oc3cc(O)ccc3cc2C(N)=O)c1`, the IC50 is reported as 11.9 µM. In the case of `CC1=C(C(=O)Nc2ccccc2F)C(c2ccsc2)C2=C(CC(C)(C)CC2=O)N1` (configuration not stated), the IC50 is reported as > 30 µM (inactive). In the case of `Nc1ncnc2c1ncn2[C@@H]1O[C@H](CO)[C@@H](O)[C@@H]1O`, the IC50 is reported as > 30 µM (inactive). In the case of `Cc1cc(=O)[nH]c(N/N=C/c2ccc(-c3ccc([N+](=O)[O-])cc3)o2)n1`, the IC50 is reported as > 30 µM (inactive). With `CN=C(C)/C(C(=O)OC)=C(/O)c1ccc(Cl)cc1Cl` the IC50 was > 30 µM (inactive). For `CC1(C)CC(=O)C2=C(C1)Nc1cc3c(cc1C2c1ccc(F)cc1)OCO3` (configuration not stated), the IC50 was > 30 µM (inactive). `CCOC(=O)C1=C(C)Nc2ncnn2C1c1cccnc1` (configuration not stated) was tested, and the IC50 was > 30 µM (inactive). Compound `O=[N+]([O-])c1cc(/C=N\O)ccc1Oc1ccc(F)cc1` has an IC50 of 23 µM. With `CCN(CC)CCN1C(=O)C(=O)/C(=C(/O)c2ccc(S(=O)(=O)N3CCOCC3)cc2)C1c1ccccc1` (configuration not stated) the IC50 was > 30 µM (inactive). For `C(=N\Nc1ncnc2nc[nH]c12)/c1cccs1`, the IC50 was 19.7 µM. With `Nc1ncnc2c1ncn2C1OC(CO)C(O)C1O` (configuration not stated) the IC50 was > 30 µM (inactive). In the case of `O=C(NCCCN1CCCC1=O)c1c(O)nc2sccn2c1=O`, the IC50 is reported as > 30 µM (inactive). With `COc1cc(/C=N/Nc2ccc([N+](=O)[O-])cn2)cc(OC)c1O` the IC50 was 5.41 µM. In the case of `O=C(O)CC1S/C(=N/N=C/c2ccc(-c3ccc(Cl)c([N+](=O)[O-])c3)o2)NC1=O` (configuration not stated), the IC50 is reported as > 30 µM (inactive). In the case of `N#CCCn1cc(/C=N/O)c(-c2ccc(-c3ccccc3)cc2)n1`, the IC50 is reported as > 30 µM (inactive). In the case of `Fc1cccc(/C=N/Nc2ncnc3nc[nH]c23)c1`, the IC50 is reported as 11.9 µM. `Fc1ccccc1/C=N/Nc1ncnc2nc[nH]c12` gave an IC50 of 11.2 µM. With `COc1cc(/C=N\Nc2ccc([N+](=O)[O-])cc2)ccc1OCC(=O)Nc1ccc(C)c(C)c1` the IC50 was > 30 µM (inactive). `COc1cccc(C2C(C(=O)OCc3ccccc3)=C(C)Nc3ncnn32)c1OC` (configuration not stated) showed an IC50 of 3.82 µM. For `COc1ccc(C2C(C(C)=O)=C(O)C(=O)N2c2nccs2)c(OC)c1` (configuration not stated), the IC50 was > 30 µM (inactive). `CC(C)n1c(O)c(C=NCc2cccnc2)c(=O)[nH]c1=S` was tested, and the IC50 was > 30 µM (inactive). For `O=C(O)Cn1cc(/C=N/Nc2ccc([N+](=O)[O-])cn2)c2ccccc21`, the IC50 was 8.24 µM. In the case of `CCOC(=O)C1=C(C)Nc2ncnn2C1c1cc(Br)ccc1F` (configuration not stated), the IC50 is reported as 24 µM. In the case of `CC1(C)CC(=O)C2=C(C1)Nc1ccccc1NC2c1cccs1` (configuration not stated), the IC50 is reported as > 30 µM (inactive). For `Nc1nc(F)nc2c1ncn2[C@@H]1O[C@H](CO)[C@@H](O)[C@H]1O`, the IC50 was > 30 µM (inactive). `Cc1c(C=Nc2ccc(S(=O)(=O)N(C)C)cc2)c(O)[nH]c(=O)c1C#N` was tested, and the IC50 was > 30 µM (inactive). Work on `Oc1ccc(/C=N/Nc2ccc(C(F)(F)F)cn2)cc1O` yielded an IC50 of 16.1 µM. In the case of `CCCCCOC(=O)C1=C(C)Nc2ncnn2C1c1cccs1` (configuration not stated), the IC50 is reported as > 30 µM (inactive). With `CCOC(=O)C1=C(CN2CCSCC2)NC(=O)NC1c1cc(C)ccc1C` (configuration not stated) the IC50 was > 30 µM (inactive). `O/N=C/c1cn(-c2ccccc2)nc1-c1cccnc1` showed an IC50 of 6.45 µM. For `C=CCOC(=O)C1=C(C)Nc2ncnn2C1c1cccs1` (configuration not stated), the IC50 was > 30 µM (inactive). For `CCOc1ccc(/C=C2/C(=N)N3OC(C)=CC3=NC2=O)cc1OC`, the IC50 was > 30 µM (inactive). `O=C(O)c1ccc(N/N=C/c2ccc(-c3cccc(Cl)c3)o2)cc1` was tested, and the IC50 was > 30 µM (inactive). In the case of `COc1ccc(C2C3=C(CCCC3=O)Nc3n[nH]c(C)c32)cc1OC` (configuration not stated), the IC50 is reported as > 30 µM (inactive). With `CC1=C(C(=O)OCc2ccccc2)C(c2ccccc2OC(F)F)NC(=O)N1` (configuration not stated) the IC50 was 4.4 µM. Work on `O=C(O)c1ccc(N=Nc2c(O)[nH]c3cc(Cl)ccc23)cc1` yielded an IC50 of 19.1 µM. In the case of `CC1=C(C(=O)OC(C)C)C(c2c[nH]c3ccccc23)n2ncnc2N1` (configuration not stated), the IC50 is reported as 1.81 µM. For `CC1(C)CC(=O)C2=C(C1)NC1=C(C(=O)c3ccccc31)C2c1ccc(O)cc1` (configuration not stated), the IC50 was > 30 µM (inactive). In the case of `N#CC(=C=[N-])c1nc2ccccc2nc1-[n+]1cccc(NC(=O)c2ccccc2)c1`, the IC50 is reported as > 30 µM (inactive). Work on `CCOc1cc(C2C3=C(CC(C)(C)CC3=O)Nc3n[nH]c(C)c32)ccc1O` (configuration not stated) yielded an IC50 of 3.32 µM. In the case of `COc1cccc(C2C3=C(CC(C)(C)CC3=O)Nc3n[nH]c(C)c32)c1` (configuration not stated), the IC50 is reported as 0.958 µM. For `Cc1ccc2c(c1)NC(c1cccs1)C1=C(CC(C)(C)CC1=O)N2` (configuration not stated), the IC50 was > 30 µM (inactive). `COc1ccc(-c2nn(-c3ccccc3)cc2/C=N/O)cc1` showed an IC50 of 0.432 µM. With `CCc1ccc(/C=N/Nc2ncnc3nc[nH]c23)cc1` the IC50 was 26.6 µM. `Cc1[nH]nc2c1C(c1cccs1)C1=C(CCCC1=O)N2` (configuration not stated) showed an IC50 of 10.6 µM.
